Experimental data as given in patent publication US7498323B2, “Spiro-piperidine compounds and medicinal use thereof” (Ono Pharmaceuticals Co., Ltd., priority 2003, dated 2009).

Target: Human CCR2 (Homo sapiens, UniProt P41597)
Details: at 10 μM; human CCR2-expressing cells (THP-1); human MCP-1 30 nM; Ca2+ transient increase
Method: (5) Inhibition test on the binding of MCP-1 to CCR2 (activity of MCP-1 to induce transient increase of Ca ion).
Then, 4-fold to 8-fold 1×Hanks/HEPES (20 mM; pH 7.4)/Probenecid (2.5 mM) was added thereto, followed by further incubation at 37° C. for 30 minutes under shading. After the cells were washed with 1×Hanks/HEPES (20 mM; pH 7.4)/Probenecid (2.5 mM) solution, the cells were suspended again by the same solution to give a density of 2.0×10^6 cells/ml and added to a 96-well plate at 100 μl/well. Each of the test compounds was added, and 3 minutes thereafter, a recombinant human MCP-1 (PeproTach) diluted with 1×Hanks/HEPES (20 mM; pH 7.4)/Probenecid (2.5 mM) was added thereto to a final concentration of 30 nM. Transient increase in the intracellular Ca^2+ concentration induced by the human MCP-1 was measured using a Ca^2+ detector for 96 well use (Hamamatsu Photonics), and inhibition ratio (%) of the test compound was calculated by the following calculation formula. Inhibition ratio=(Ec−Ea)/Ec×100 • Ec: measured value of Ca^2+ transient increase by MCP-1 • Ea: measured value of Ca^2+ transient increase by MCP-1 when a test compound was added.

Sequence of Human CCR2 (P41597 1-360 isoform P41597-2): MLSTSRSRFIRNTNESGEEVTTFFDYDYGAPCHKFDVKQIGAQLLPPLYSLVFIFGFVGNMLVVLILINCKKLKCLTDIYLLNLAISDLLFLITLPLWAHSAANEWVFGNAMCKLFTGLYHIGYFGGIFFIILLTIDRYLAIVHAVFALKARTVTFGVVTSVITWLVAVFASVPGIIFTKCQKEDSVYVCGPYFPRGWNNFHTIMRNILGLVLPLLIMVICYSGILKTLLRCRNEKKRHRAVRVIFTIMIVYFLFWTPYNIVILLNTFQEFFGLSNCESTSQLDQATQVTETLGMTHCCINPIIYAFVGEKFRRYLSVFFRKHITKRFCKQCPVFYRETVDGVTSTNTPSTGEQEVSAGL

**Q.** How did the inhibition ratio turn out when CCCN1C(=O)N(CCCNC(=O)OCc2ccccc2)CCC12CCN(CCc1ccccc1)CC2 [Example 37, phenylmethyl{3-[2-oxo-9-(2-phenylethyl)-1-propyl-1,3,9-triazaspiro[5.5]undeca-3-yl]propyl}carbamate] was run?
**A.** ≥ 50%
